The text below walks through data of US20110190253A1, “METHOD FOR TREATING TUBERCULOSIS” (priority 2008, published 2011).

For experiment [1], the system named is M. tuberculosis Erdman strain. Nature of the experiment: broth microdilution in 7H9 broth, 96 well plates, M. tuberculosis growth after 1 week of incubation. As to conditions: one week of incubation. It counts as cell-based. (In broth dilution the organism is exposed to a series of concentrations in liquid medium.)
The test system of experiment [2] is M. tuberculosis in viable but nonreplicative (NRP) state. In words: Wayne model, nonreplicative (NRP2) cultures, viability by intracellular ATP and CFUs. It counts as cell-based. The settings on record: for reduction of viability (intracellular ATP, CFUs): combination with clavulanate, anaerobic chamber, 1 week and 2 weeks, data not shown; for kill over a 2-week exposure time: meropenem in combination with clavulanate, metronidazole as control compound.

The subject of a further experiment is M. tuberculosis H37Rv. Nature of the experiment: minimum inhibitory concentration (MIC) in 7H9 medium at 37° C. The settings on record: for effect of addition of clavulanate on the MIC value: absence vs presence of 2.5 μg ml^−1 clavulanate, data not shown. It counts as cell-based.
Another experiment concerns the target BlaC (Mycobacterium tuberculosis, UniProt P9WKD3). Nature of the experiment: rate of hydrolysis by BlaC. It counts as biochemical, M. tuberculosis.
Experiment [3] relates to M. tuberculosis Erdman strain. In words: MIC against Erdman strain. Type of experiment: cell-based. As to conditions: Mycobacterium tuberculosis, read-out: MIC value.
[4] abbreviates: at any concentration of clavulanate (0.0.5, 1 and 2 μg/ml).

Structures are written as SMILES.

Chain of BlaC (P9WKD3 35-307): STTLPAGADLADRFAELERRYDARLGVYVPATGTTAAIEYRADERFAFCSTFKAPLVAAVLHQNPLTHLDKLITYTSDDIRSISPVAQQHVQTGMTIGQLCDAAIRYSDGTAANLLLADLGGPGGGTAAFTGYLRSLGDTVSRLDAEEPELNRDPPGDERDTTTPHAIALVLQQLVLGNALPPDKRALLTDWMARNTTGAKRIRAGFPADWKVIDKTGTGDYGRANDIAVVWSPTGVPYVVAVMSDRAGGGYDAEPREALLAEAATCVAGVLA

For the molecule `CCN1CCN(C(=O)N[C@@H](C(=O)N[C@@H]2C(=O)N3[C@@H]2SC(C)(C)[C@@H]3C(=O)O)c2ccccc2)C(=O)C1=O` [piperacillin], the “inhibition of M. tuberculosis growth” value in experiment [1] (setting [4]) was “no inhibition”.

With `CC(C)(O/N=C(\C(=O)N[C@@H]1C(=O)N2C(C(=O)[O-])=C(C[n+]3ccccc3)CS[C@H]12)c1csc(N)n1)C(=O)O` [ceftazidime], the “inhibition of M. tuberculosis growth” value in experiment [1] (setting [4]) was “no inhibition”.

On to `CO/N=C(\C(=O)N[C@@H]1C(=O)N2C(C(=O)O)=C(COC(N)=O)CS[C@H]12)c1ccco1` [cefuroxime], for which the “reduction of viability (intracellular ATP, CFUs)” value (from here on “reduction of viability”) in experiment [2] is on record as “effective in reducing viability”. Besides, in experiment [1] (2 μg/ml cefuroxime and 2 μg/ml clavulanate), the “inhibition of M. tuberculosis growth” value is reported as “Modest inhibition”.

Take `CC1(C)S[C@@H]2[C@H](NC(=O)[C@H](N)c3ccc(O)cc3)C(=O)N2[C@H]1C(=O)O` [amoxicillin]: the “effect of addition of clavulanate on the MIC value” in the experiment with M. tuberculosis H37Rv is listed as “only a modest effect”. The “reduction of viability” value in experiment [2] was “effective in reducing viability”. In addition, the “inhibition of M. tuberculosis growth” value in experiment [1] (4 μg/ml of amoxicillin and 1-2 μg/ml clavulanate) was “Modest inhibition”.

As for `CC1(C)S[C@@H]2[C@H](NC(=O)[C@H](N)c3ccccc3)C(=O)N2[C@H]1C(=O)O` [ampicillin], in the experiment on M. tuberculosis H37Rv, the “effect of addition of clavulanate on the MIC value” is reported as “only a modest effect”.

For the molecule `C[C@@H](O)[C@H]1C(=O)N2C(C(=O)O)=C(S[C@@H]3CN[C@H](C(=O)N(C)C)C3)[C@H](C)[C@H]12` [meropenem], in the experiment with M. tuberculosis H37Rv (7H9 medium, 37° C., 2.5 μg ml^−1 clavulanate), the “MIC value in the presence of clavulanate” value turned out to be 0.32 µg/mL. For the same molecule, in the experiment with M. tuberculosis H37Rv (Mycobacterium tuberculosis, with clavulanate, as restated), the minimum inhibitory concentration (MIC) (in general, the lowest concentration that inhibits growth of the organism) was not above 1 µg/mL. In addition, the “rate of hydrolysis by BlaC” value on BlaC was “low”. Besides, in experiment [2], the “reduction of viability” value was “more pronounced” and the “kill over a 2-week exposure time” value is given as “more than a log kill”. Moreover, the M. tuberculosis growth result in experiment [1] (1 μg/ml meropenem in combination with 1 μg/ml clavulanate) is recorded as “No M. tuberculosis growth”. Besides, the MIC in experiment [3] was not above 1 µg/mL.

On to `Cc1ncc([N+](=O)[O-])n1CCO` [metronidazole], for which the “kill over a 2-week exposure time” value in experiment [2] is on record as “comparable”.
